Legend:
[1] = target: T1, full-length Plk1 / biotinylated PBIP1 phospho-T78 peptide interaction (Homo sapiens, UniProt P53350); assay: ELISA-based PBD1-binding inhibition assay; details: at least three independent experiments; read-out: ELISA (IC50) Mean ± SEM
T1 construct: HA; EGFP; expressed in transfected cells; host or cells: HEK293A cells infected with adenovirus; total lysates

[2] = tested on: multiple myeloma-derived L363 cells; assay: Colorimetric MTS cell viability assay; assay type: cell-based; details: Homo sapiens, L-363, N.S. = Not significant, read-out: Cell efficacy (GI50) Mean ± SD
Source text: • *Data from Park, J. E., et al {Park, 2023 #3387}. **Data from Alverez C. N., et al {Alverez, 2020 #3186}. N. S., Not significant; N. D., Not determined. ^a IC50 values determined from at least three independent experiments except as noted in parentheses. b A colorimetric MTS cell viability assay carried out using multiple myeloma-derived L363 cells.

[3] = Conversion of Allopole to Allopole-A under various buffer conditions (mass spectroscopy); assay type: physicochemical; details: RT, 1 h; for Compound detected / Compound detected, % of total / Compound detected, pk area: 100 uM Allopole incubated
Procedure: This Example illustrates the conversion of Allopole to Allopole-A under various buffer conditions, RT, 1 h (JE), as set forth in Table 4
Samples were prepared by incubating Allopole in the indicated buffer conditions without or with 5 mM GSH for 1 h, at RT.

5-HT1A = 5-HT1A (Homo sapiens, UniProt P08908); assay: Off-target primary and secondary screen; assay type: binding; details: 10 mM sample
5-HT1B = 5-HT1B (Homo sapiens, UniProt P28222); assay: Off-target primary and secondary screen; assay type: binding; details: 10 mM sample
5-HT1D = 5-HT1D (Homo sapiens, UniProt P28221); assay: Off-target primary and secondary screen; assay type: binding; details: 10 mM sample
5-HT2A = 5-HT2A (Homo sapiens, UniProt P28223); assay: Off-target primary and secondary screen; assay type: binding
5-HT2B = 5-HT2B (Homo sapiens, UniProt P41595); assay: Off-target primary and secondary screen; assay type: binding; details: 10 mM sample
5-HT3 = 5-HT3 (Homo sapiens, UniProt P46098); assay: Off-target primary and secondary screen; assay type: binding; details: 10 mM sample
5-HT5A = 5-HT5A (Homo sapiens, UniProt P47898); assay: Off-target primary and secondary screen; assay type: binding; details: 10 mM sample
5-HT6 = 5-HT6 (Homo sapiens, UniProt P50406); assay: Off-target primary and secondary screen; assay type: binding; details: 10 mM sample
5-HT7A = 5-HT7A (Homo sapiens, UniProt P34969); assay: Off-target primary and secondary screen; assay type: binding; details: 10 mM sample
Alpha1B = Alpha1B (Homo sapiens, UniProt P35368); assay: Off-target primary and secondary screen; assay type: binding; details: 10 mM sample
Aipha1D = Aipha1D (Homo sapiens, UniProt P25100); assay: Off-target primary and secondary screen; assay type: binding; details: 10 mM sample
Alpha2A = Alpha2A (Homo sapiens, UniProt P08913); assay: Off-target primary and secondary screen; assay type: binding; details: 10 mM sample
Alpha2B = Alpha2B (Homo sapiens, UniProt P18089); assay: Off-target primary and secondary screen; assay type: binding; details: 10 mM sample
Beta2 = Beta2 (Homo sapiens, UniProt P07550); assay: Off-target primary and secondary screen; assay type: binding; details: 10 mM sample
Beta3 = Beta3 (Homo sapiens, UniProt P13945); assay: Off-target primary and secondary screen; assay type: binding; details: 10 mM sample
D1 = D1 (Homo sapiens, UniProt P21728); assay: Off-target primary and secondary screen; assay type: binding; details: 10 mM sample
D2 = D2 (Homo sapiens, UniProt P14416); assay: Off-target primary and secondary screen; assay type: binding; details: 10 mM sample
D4 = D4 (Homo sapiens, UniProt P21917); assay: Off-target primary and secondary screen; assay type: binding; details: 10 mM sample
D5 = D5 (Homo sapiens, UniProt P21918); assay: Off-target primary and secondary screen; assay type: binding; details: 10 mM sample
DAT = DAT (Homo sapiens, UniProt Q01959); assay: Off-target primary and secondary screen; assay type: binding; details: 10 mM sample
H1 = H1 (Homo sapiens, UniProt P35367); assay: Off-target primary and secondary screen; assay type: binding; details: 10 mM sample
H2 = H2 (Homo sapiens, UniProt P25021); assay: Off-target primary and secondary screen; assay type: binding; details: 10 mM sample
H3 = H3 (Homo sapiens, UniProt Q9Y5N1); assay: Off-target primary and secondary screen; assay type: binding; details: 10 mM sample
H4 = H4 (Homo sapiens, UniProt Q9H3N8); assay: Off-target primary and secondary screen; assay type: binding; details: 10 mM sample
KOR = KOR (Homo sapiens, UniProt P41145); assay: Off-target primary and secondary screen; assay type: binding; details: 10 mM sample
M4 = M4 (Homo sapiens, UniProt P08173); assay: Off-target primary and secondary screen; assay type: binding; details: 10 mM sample
MOR = MOR (Homo sapiens, UniProt P35372); assay: Off-target primary and secondary screen; assay type: binding; details: 10 mM sample
PBR = PBR (Homo sapiens, UniProt P30536); assay: Off-target primary and secondary screen; assay type: binding
Sigma 1 = Sigma 1 (Homo sapiens, UniProt Q99720); assay: Off-target primary and secondary screen; assay type: binding; details: 10 mM sample
Sigma 2 = Sigma 2 (Homo sapiens, UniProt Q5BJF2); assay: Off-target primary and secondary screen; assay type: binding; details: 10 mM sample
[4] = buffer 2 (1x PBS pH = 7.4), no GSH
[5] = buffer 3 (20 mM HEPES pH = 7.0), no GSH

Chain of 5-HT2A (P28223 whole entry, species assumed): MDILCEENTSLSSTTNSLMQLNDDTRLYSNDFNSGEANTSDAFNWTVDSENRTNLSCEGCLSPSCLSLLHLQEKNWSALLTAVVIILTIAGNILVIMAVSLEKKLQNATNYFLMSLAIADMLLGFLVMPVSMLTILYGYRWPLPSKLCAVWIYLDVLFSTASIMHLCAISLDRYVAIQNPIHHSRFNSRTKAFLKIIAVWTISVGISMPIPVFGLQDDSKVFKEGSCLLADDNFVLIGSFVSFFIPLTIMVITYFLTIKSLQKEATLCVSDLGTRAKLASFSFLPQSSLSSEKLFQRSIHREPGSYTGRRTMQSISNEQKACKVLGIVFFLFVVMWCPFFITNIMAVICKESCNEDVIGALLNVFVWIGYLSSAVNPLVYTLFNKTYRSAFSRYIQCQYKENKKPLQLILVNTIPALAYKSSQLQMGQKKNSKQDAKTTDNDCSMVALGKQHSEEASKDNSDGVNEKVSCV
Chain of PBR (P30536 whole entry, species assumed): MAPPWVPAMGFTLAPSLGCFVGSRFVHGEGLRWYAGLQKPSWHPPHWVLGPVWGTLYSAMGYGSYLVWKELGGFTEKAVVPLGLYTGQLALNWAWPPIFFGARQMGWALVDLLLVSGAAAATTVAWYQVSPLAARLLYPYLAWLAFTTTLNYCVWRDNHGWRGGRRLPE
Chain of KOR (P41145 whole entry): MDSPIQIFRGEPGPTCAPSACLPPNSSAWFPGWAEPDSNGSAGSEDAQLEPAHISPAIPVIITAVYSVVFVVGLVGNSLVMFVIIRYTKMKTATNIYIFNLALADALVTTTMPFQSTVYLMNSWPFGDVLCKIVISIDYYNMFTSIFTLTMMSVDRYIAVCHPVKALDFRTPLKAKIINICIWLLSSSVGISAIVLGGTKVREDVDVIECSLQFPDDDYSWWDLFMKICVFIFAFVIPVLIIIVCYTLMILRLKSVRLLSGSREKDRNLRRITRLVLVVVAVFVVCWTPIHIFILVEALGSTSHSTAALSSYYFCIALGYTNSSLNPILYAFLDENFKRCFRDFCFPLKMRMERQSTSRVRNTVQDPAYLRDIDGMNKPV
Chain of DAT (Q01959 whole entry, species assumed): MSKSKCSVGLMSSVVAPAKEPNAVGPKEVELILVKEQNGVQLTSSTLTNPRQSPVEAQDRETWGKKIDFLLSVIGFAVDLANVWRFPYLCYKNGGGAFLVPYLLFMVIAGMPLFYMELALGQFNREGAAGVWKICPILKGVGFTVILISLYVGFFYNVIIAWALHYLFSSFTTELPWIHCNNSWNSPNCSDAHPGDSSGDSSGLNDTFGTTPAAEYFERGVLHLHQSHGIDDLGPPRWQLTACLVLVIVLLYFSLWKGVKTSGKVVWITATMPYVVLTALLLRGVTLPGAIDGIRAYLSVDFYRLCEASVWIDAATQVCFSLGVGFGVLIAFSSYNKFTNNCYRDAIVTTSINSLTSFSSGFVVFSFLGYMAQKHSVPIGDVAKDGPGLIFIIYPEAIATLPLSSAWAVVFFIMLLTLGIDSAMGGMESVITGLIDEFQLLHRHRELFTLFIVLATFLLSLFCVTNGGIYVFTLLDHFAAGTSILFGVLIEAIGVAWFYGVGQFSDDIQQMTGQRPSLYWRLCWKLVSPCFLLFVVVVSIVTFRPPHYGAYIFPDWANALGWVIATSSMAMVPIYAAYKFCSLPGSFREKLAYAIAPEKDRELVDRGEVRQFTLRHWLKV
Chain of 5-HT6 (P50406 whole entry, species assumed): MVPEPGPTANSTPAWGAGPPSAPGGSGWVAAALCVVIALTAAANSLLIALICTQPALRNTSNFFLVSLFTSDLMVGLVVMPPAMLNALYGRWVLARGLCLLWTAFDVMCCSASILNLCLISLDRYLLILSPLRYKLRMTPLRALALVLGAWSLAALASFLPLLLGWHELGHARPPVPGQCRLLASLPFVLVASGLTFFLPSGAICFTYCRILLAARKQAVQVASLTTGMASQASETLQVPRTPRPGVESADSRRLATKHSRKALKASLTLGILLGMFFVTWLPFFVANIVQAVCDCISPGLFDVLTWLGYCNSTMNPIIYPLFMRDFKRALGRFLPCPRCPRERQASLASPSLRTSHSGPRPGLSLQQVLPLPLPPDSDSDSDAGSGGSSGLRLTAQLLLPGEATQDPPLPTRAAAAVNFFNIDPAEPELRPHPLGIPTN
Chain of Alpha2A (P08913 whole entry): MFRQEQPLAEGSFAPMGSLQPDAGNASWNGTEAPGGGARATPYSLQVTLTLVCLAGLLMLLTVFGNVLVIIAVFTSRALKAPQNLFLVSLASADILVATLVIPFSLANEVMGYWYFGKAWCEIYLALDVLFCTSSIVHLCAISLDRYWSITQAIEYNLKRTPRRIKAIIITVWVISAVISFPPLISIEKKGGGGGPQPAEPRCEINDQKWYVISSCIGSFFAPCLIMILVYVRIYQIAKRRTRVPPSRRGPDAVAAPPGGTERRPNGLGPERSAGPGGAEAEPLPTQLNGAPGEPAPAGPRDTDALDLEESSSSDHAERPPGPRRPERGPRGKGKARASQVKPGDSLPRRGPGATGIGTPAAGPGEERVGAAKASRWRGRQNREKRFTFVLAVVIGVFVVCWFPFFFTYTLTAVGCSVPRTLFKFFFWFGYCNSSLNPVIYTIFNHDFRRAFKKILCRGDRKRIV
Chain of D4 (P21917 whole entry): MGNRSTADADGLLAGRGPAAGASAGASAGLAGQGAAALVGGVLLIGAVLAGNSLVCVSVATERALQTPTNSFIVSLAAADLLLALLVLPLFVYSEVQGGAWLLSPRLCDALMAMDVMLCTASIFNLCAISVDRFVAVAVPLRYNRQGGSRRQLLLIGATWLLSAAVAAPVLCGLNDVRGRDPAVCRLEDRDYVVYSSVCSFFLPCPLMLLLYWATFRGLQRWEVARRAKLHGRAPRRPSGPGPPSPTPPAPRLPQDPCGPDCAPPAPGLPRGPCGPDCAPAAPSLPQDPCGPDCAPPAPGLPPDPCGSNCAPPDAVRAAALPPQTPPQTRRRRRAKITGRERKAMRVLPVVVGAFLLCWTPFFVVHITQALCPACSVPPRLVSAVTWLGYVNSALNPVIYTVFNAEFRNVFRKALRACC
Chain of D2 (P14416 whole entry): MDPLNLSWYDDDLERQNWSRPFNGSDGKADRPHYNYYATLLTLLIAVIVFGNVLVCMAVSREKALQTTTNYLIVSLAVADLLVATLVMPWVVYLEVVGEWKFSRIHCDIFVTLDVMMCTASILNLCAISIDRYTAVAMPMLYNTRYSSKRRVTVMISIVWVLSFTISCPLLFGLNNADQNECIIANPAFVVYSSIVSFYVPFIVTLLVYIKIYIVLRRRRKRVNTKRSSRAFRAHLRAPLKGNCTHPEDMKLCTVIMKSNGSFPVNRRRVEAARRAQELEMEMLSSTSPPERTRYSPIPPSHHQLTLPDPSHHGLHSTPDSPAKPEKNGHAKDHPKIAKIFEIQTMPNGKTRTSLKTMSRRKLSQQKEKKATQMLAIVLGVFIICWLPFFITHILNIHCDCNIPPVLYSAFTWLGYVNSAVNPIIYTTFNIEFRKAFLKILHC
Chain of D5 (P21918 whole entry): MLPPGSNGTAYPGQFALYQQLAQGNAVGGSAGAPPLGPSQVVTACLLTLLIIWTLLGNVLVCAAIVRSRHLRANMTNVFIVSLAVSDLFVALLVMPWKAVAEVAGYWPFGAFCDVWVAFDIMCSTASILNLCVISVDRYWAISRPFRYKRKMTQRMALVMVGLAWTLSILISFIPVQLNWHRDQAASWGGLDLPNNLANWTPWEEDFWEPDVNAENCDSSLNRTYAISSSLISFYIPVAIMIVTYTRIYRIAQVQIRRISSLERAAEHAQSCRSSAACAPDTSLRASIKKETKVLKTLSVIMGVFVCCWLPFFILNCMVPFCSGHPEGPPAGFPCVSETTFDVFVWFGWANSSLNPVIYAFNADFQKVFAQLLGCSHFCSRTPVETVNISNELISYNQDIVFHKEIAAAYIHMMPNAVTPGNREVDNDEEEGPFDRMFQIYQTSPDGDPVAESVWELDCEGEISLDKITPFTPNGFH
Chain of 5-HT2B (P41595 whole entry, species assumed): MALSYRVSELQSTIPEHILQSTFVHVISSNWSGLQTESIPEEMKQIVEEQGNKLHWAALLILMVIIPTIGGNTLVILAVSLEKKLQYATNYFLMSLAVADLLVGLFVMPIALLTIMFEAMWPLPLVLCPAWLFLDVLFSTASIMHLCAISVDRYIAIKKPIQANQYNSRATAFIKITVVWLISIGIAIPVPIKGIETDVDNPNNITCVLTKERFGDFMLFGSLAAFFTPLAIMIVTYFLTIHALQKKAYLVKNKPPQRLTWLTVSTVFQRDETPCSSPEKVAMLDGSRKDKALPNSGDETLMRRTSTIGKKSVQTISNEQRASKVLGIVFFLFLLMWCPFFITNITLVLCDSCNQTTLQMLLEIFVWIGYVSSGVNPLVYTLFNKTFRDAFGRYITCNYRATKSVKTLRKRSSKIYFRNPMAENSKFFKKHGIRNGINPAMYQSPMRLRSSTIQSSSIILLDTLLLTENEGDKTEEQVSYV
Chain of H4 (Q9H3N8 whole entry): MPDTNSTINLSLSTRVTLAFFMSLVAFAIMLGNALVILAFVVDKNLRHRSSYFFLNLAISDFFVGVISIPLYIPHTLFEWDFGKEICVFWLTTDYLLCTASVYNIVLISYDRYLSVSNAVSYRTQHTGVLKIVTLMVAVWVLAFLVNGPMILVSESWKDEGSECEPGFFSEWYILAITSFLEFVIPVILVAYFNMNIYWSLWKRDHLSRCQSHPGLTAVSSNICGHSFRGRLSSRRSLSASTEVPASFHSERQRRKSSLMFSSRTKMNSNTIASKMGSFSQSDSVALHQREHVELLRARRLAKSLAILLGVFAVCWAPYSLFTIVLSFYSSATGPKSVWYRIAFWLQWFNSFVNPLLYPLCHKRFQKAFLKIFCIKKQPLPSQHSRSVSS
Chain of Sigma 2 (Q5BJF2 whole entry): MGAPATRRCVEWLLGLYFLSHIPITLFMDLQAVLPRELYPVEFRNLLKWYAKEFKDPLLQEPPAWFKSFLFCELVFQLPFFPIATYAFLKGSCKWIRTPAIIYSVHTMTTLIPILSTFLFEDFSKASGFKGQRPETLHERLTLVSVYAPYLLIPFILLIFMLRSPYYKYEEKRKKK

## Cn1cnc([N+](=O)[O-])c1Sc1nnc2n(CC3CC3)c(=O)c3sc(Cl)cc3n12 [Compound 20, 7-Chloro-4-(cyclopropylmethyl)-1-((1-methyl-4-nitro-1H-imidazol-5-yl)thio) thieno[2,3-e][1,2,4]triazolo[4,3-a]pyrimidin-5 (4H)-one]
[1]
  IC50: > 25 µM
[2]
  GI50: 4.09 ± 0.14 µM
[3]; buffer 1 + 5 mM GSH
  Compound detected: 0.1 µmol/L
  Compound detected, % of total: 0.1 % of total
  Compound detected, pk area: 8.76E+08
[3]; [4]
  Compound detected: 97.6 µmol/L
  Compound detected, % of total: 97.6 % of total
  Compound detected, pk area: 6.28E+08
[3]; buffer 2 + 5 mM GSH
  Compound detected: 0.0 µmol/L
  Compound detected, % of total: 0.0 % of total
  Compound detected, pk area: 2.41E+03
[3]; [5]
  Compound detected: 93.1 µmol/L
  Compound detected, % of total: 93.1 % of total
[3]; buffer 3 + 5 mM GSN
  Compound detected: 0.0 µmol/L
  Compound detected, % of total: 0.0 % of total
  Compound detected, pk area: 93500
[3]; buffer 3 [sic], no GSH
  Compound detected: 97.9 µmol/L
  Compound detected, % of total: 97.9 % of total
  Compound detected, pk area: 7.45E+08
[3]; in the absence of GSH
  stability in buffer: remains stable
[3]; with 5 mM GSH
  conversion of the prodrug to the active Allopole-A form: rapid conversion
5-HT1A
  Primary screen AVE (% inhib) ± SD: -12.8 ± 19.7 % inhib
5-HT1B
  Primary screen AVE (% inhib) ± SD: 60.8 ± 40.9 % inhib
5-HT1D
  Primary screen AVE (% inhib) ± SD: 32.8 ± 27.1 % inhib
5-HT2A
  Ki: 9.2 µM
5-HT2A; 10 mM sample
  Primary screen AVE (% inhib) ± SD: 52.4 ± 11.8 % inhib
5-HT2B
  Primary screen AVE (% inhib) ± SD: -0.5 ± 5.0 % inhib
5-HT3
  Primary screen AVE (% inhib) ± SD: -0.8 ± 4.6 % inhib
5-HT5A
  Primary screen AVE (% inhib) ± SD: 24.5 ± 9.3 % inhib
5-HT6
  Primary screen AVE (% inhib) ± SD: 21.9 ± 15.6 % inhib
5-HT7A
  Primary screen AVE (% inhib) ± SD: 14.9 ± 9.9 % inhib
Alpha1B
  Primary screen AVE (% inhib) ± SD: -1.6 ± 9.5 % inhib
Aipha1D
  Primary screen AVE (% inhib) ± SD: -15.1 ± 19.8 % inhib
Alpha2A
  Primary screen AVE (% inhib) ± SD: 9.4 ± 4.6 % inhib
Alpha2B
  Primary screen AVE (% inhib) ± SD: 8.3 ± 16.4 % inhib
Beta2
  Primary screen AVE (% inhib) ± SD: 0.1 ± 10.6 % inhib
Beta3
  Primary screen AVE (% inhib) ± SD: 30.8 ± 22.8 % inhib
D1
  Primary screen AVE (% inhib) ± SD: 21.5 ± 6.8 % inhib
D2
  Primary screen AVE (% inhib) ± SD: 3.6 ± 6.6 % inhib
D4
  Primary screen AVE (% inhib) ± SD: 12.6 ± 4.9 % inhib
D5
  Primary screen AVE (% inhib) ± SD: 20.9 ± 9.5 % inhib
DAT
  Primary screen AVE (% inhib) ± SD: 54.0 ± 10.7 % inhib
H1
  Primary screen AVE (% inhib) ± SD: 35.8 ± 11.9 % inhib
H2
  Primary screen AVE (% inhib) ± SD: -16.4 ± 21.5 % inhib
H3
  Primary screen AVE (% inhib) ± SD: -12.5 ± 7.9 % inhib
H4
  Primary screen AVE (% inhib) ± SD: 8.2 ± 3.1 % inhib
KOR
  Primary screen AVE (% inhib) ± SD: 3.7 ± 4.1 % inhib
M4
  Primary screen AVE (% inhib) ± SD: -8.7 ± 9.5 % inhib
MOR
  Primary screen AVE (% inhib) ± SD: 40.6 ± 51.0 % inhib
PBR
  Ki: > 10 µM
PBR; 10 mM sample
  Primary screen AVE (% inhib) ± SD: -2.1 ± 5.3 % inhib
Sigma 1
  Primary screen AVE (% inhib) ± SD: 41.8 ± 11.9 % inhib
Sigma 2
  Primary screen AVE (% inhib) ± SD: 40.7 ± 5.8 % inhib
